Data published in article PMC6916333, “A lysin motif effector subverts chitin‐triggered immunity to facilitate arbuscular mycorrhizal symbiosis” (The New Phytologist, 2019).
Like-named read-outs stand apart in the source and are kept apart here.

Target: T1, RiSLM (Rhizophagus irregularis, UniProt U9TZV5)
T1 construct: gene GLOIN_2v1561425; without signal peptide; single LysM domain; expressed in E. coli ORIGAMI from pET-SUMO, SUMO tag removed by ULP-1; c; 7 kDa (faint 14 and 21 kDa bands, possible oligomers); NT.115 RED dye label
T1 sequence (U9TZV5 entry or part of it): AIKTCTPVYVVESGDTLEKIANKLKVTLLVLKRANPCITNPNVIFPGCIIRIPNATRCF
Experiment: microscale thermophoresis
Format: binding
Details: dye-labelled protein 20 nM

[1] = 50 mM Tris pH 7.4, 10 mM MgCl2, 150 mM NaCl, 0.05% Tween 20, 22 °C

Row | Compound | Kd [1] [µM] | further results
1 | LCO-IV(C18:1, S) | – | Kd (25 mM sodium cacodylate pH 6.0, 1 mM MgCl2, 1 mM CaCl2, 250 mM sucrose, 0.175% Fos-choline-10, 0.5% ethanol, 22 °C, first (high-affinity) of two binding events, read-out: K d): ~0.015 µM
2 | CC(=O)N[C@H]1[C@H](O[C@H]2[C@H](O)[C@@H](NC(C)=O)[C@H](O[C@H]3[C@H](O)[C@@H](NC(C)=O)[C@H](O[C@H]4[C@H](O)[C@@H](NC(C)=O)C(O)O[C@@H]4CO)O[C@@H]3CO)O[C@@H]2CO)O[C@H](CO)[C@@H](O[C@@H]2O[C@H](CO)[C@@H](O[C@@H]3O[C@H](CO)[C@@H](O[C@@H]4O[C@H](CO)[C@@H](O)[C@H](O)[C@H]4NC(C)=O)[C@H](O)[C@H]3NC(C)=O)[C@H](O)[C@H]2NC(C)=O)[C@@H]1O (some centres unmarked) [CO7, chitoheptaose] | 8.8 ± 1.2 | –
3 | CC(=O)N[C@H]1[C@H](O[C@H]2[C@H](O)[C@@H](NC(C)=O)C(O)O[C@@H]2CO)O[C@H](CO)[C@@H](O[C@@H]2O[C@H](CO)[C@@H](O[C@@H]3O[C@H](CO)[C@@H](O)[C@H](O)[C@H]3NC(C)=O)[C@H](O)[C@H]2NC(C)=O)[C@@H]1O (some centres unmarked) [CO4, chitotetraose] | 37.1 ± 1.4 | –
4 | LCO-IV(C18:1) | – | Kd (25 mM sodium cacodylate pH 6.0, 1 mM MgCl2, 1 mM CaCl2, 250 mM sucrose, 0.175% Fos-choline-10, 0.5% ethanol, 22 °C, single binding event, read-out: K d): ~0.24 µM
5 | CC(=O)N[C@H]1[C@H](O[C@H]2[C@H](O)[C@@H](NC(C)=O)[C@H](O[C@H]3[C@H](O)[C@@H](NC(C)=O)C(O)O[C@@H]3CO)O[C@@H]2CO)O[C@H](CO)[C@@H](O[C@@H]2O[C@H](CO)[C@@H](O[C@@H]3O[C@H](CO)[C@@H](O)[C@H](O)[C@H]3NC(C)=O)[C@H](O)[C@H]2NC(C)=O)[C@@H]1O (some centres unmarked) [CO5] | 59.4 ± 2.1 | –
